# According to ChEMBL document CHEMBL1201862, “PubChem BioAssay data set” (2004):
#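 How tested: cells in 96-well plates exposed to compound for 48 hours at five concentrations. GI50 marks 50% less growth.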 Activity calls are given as the source filed them. Rule as the data show it: active = GI50 up to about 1.1 µM and inactive = higher.
# Key:
# Assay in all cases: NCI tumour cell line growth inhibition, 48 h
# [1] = test system: U-251
# [2] = test system: OVCAR-4
# [3] = test system: SF-295
# [4] = test system: NCI-H226
# [5] = test system: SR
# [6] = test system: SK-MEL-5
# [7] = test system: CAKI-1
# [8] = test system: LOX IMVI
# [9] = test system: SN12C
# [10] = test system: KM12
# [11] = test system: OVCAR-5
# [12] = test system: NCI/ADR-RES
# [13] = test system: SK-MEL-28
# [14] = test system: UACC-62
# [15] = test system: SF-268
# [16] = test system: PC-3
# [17] = test system: SF-539
# [18] = test system: NCI-H23
# [19] = test system: EKVX
# [20] = test system: HOP-62
SMILES,GI50 [1],GI50 [2],GI50 [3],GI50 [4],GI50 [5],GI50 [6],GI50 [7],GI50 [8],GI50 [9],GI50 [10],GI50 [11],GI50 [12],GI50 [13],GI50 [14],GI50 [15],GI50 [16],GI50 [17],GI50 [18],GI50 [19],GI50 [20]
Cc1ccc(C2SC(=N)Nc3c2c(C)nn3C(=O)c2ccc(Cl)cc2)cc1 (stereo not given),> 10 µM (inactive),> 10 µM (inactive),> 10 µM (inactive),> 10 µM (inactive),> 10 µM (inactive),> 10 µM (inactive),> 10 µM (inactive),> 10 µM (inactive),> 10 µM (inactive),> 10 µM (inactive),> 10 µM (inactive),> 10 µM (inactive),> 10 µM (inactive),> 10 µM (inactive),> 10 µM (inactive),> 10 µM (inactive),> 10 µM (inactive),> 10 µM (inactive),> 10 µM (inactive),> 10 µM (inactive)
COc1ccc2c(c1)c1nn(CCN3CCCCC3)c3ccc4c(=O)n(CCN(C)C)c(=O)n2c4c13,< 0.01 µM (active),< 0.01 µM (active),< 0.01 µM (active),0.0231 µM (active),< 0.01 µM (active),0.0406 µM (active),0.0219 µM (active),< 0.01 µM (active),< 0.01 µM (active),< 0.01 µM (active),< 0.0105 µM (active),< 0.153 µM (active),0.139 µM (active),0.0304 µM (active),< 0.01 µM (active),0.019 µM (active),0.0284 µM (active),< 0.022 µM (active),< 0.0142 µM (active),< 0.01 µM (active)
Cc1ccc(SC2=C(N(C)C)C(=O)c3ccccc3C2=O)cc1,8.05 µM (inactive),4.06 µM (inactive),11.5 µM (inactive),9.82 µM (inactive),0.631 µM (active),2.31 µM (inactive),1.53 µM (inactive),3.35 µM (inactive),4.92 µM (inactive),3.06 µM (inactive),12.9 µM (inactive),0.847 µM (active),10.3 µM (inactive),4.35 µM (inactive),4.76 µM (inactive),4.11 µM (inactive),2.79 µM (inactive),1.82 µM (inactive),6.71 µM (inactive),8.2 µM (inactive)
C[C@@]1(O)C2CC3CC1(c1ccccc1)CC(/C3=N/O)/C2=N\O (stereo not given in full),> 100 µM (inactive),> 100 µM (inactive),> 100 µM (inactive),> 100 µM (inactive),> 100 µM (inactive),> 100 µM (inactive),> 100 µM (inactive),> 100 µM (inactive),> 100 µM (inactive),> 100 µM (inactive),> 100 µM (inactive),> 100 µM (inactive),> 100 µM (inactive),> 100 µM (inactive),> 100 µM (inactive),> 100 µM (inactive),> 100 µM (inactive),> 100 µM (inactive),> 100 µM (inactive),> 100 µM (inactive)
CCOc1cc(C(c2c(O)c3ccccc3oc2=O)c2c(O)c3ccccc3oc2=O)ccc1OC,15.8 µM (inactive),17.2 µM (inactive),19.4 µM (inactive),23.3 µM (inactive),28.1 µM (inactive),23.2 µM (inactive),16.4 µM (inactive),20.6 µM (inactive),18.8 µM (inactive),18.2 µM (inactive),19.6 µM (inactive),27.4 µM (inactive),28.1 µM (inactive),18.5 µM (inactive),18.9 µM (inactive),17.3 µM (inactive),20.7 µM (inactive),23.4 µM (inactive),21.3 µM (inactive),18.2 µM (inactive)
Cc1cc(=O)oc2cc(SC(=O)N(C)C)ccc12,> 100 µM (inactive),> 100 µM (inactive),> 100 µM (inactive),> 100 µM (inactive),> 100 µM (inactive),> 100 µM (inactive),> 100 µM (inactive),> 100 µM (inactive),> 100 µM (inactive),> 100 µM (inactive),77.8 µM (inactive),> 100 µM (inactive),> 100 µM (inactive),57.1 µM (inactive),> 100 µM (inactive),> 100 µM (inactive),> 100 µM (inactive),> 100 µM (inactive),61 µM (inactive),> 100 µM (inactive)
O=C1Nc2ccc(Br)cc2/C1=N/N1C(=O)C(=O)N(C2CCCCC2)C1=S,2.93 µM (inactive),4.44 µM (inactive),3.16 µM (inactive),7.03 µM (inactive),1.19 µM (inactive),4.34 µM (inactive),3.1 µM (inactive),4.07 µM (inactive),3.43 µM (inactive),3.48 µM (inactive),9.75 µM (inactive),3.22 µM (inactive),4.07 µM (inactive),3.05 µM (inactive),6.7 µM (inactive),3.52 µM (inactive),5.66 µM (inactive),7.11 µM (inactive),4.98 µM (inactive),2.92 µM (inactive)
